Kd and melting point data for eight compounds are collected here from publication PMC6271771, “4-Amino-substituted Benzenesulfonamides as Inhibitors of Human Carbonic Anhydrases” (Molecules, 2014).

The target in one data set is T1, CA VI (Homo sapiens, UniProt P23280).
T1 construct: made in house
As to the kind of experiment: Fluorescent thermal shift assay (FTSA), CA VI. The class given is binding. The note with it: FTSA, pH 7.0, 37 °C; read-out: Compound Dissociation Constants Kd for CA VI.

For the next data set, the target named is T2, CA VII (Homo sapiens, UniProt P43166).
T2 construct: made in house
Description: Fluorescent thermal shift assay (FTSA), CA VII. The class given is binding. The note with it: FTSA, pH 7.0, 37 °C; read-out: Compound Dissociation Constants Kd for CA VII.

The target of another data set is T3, CA I (Homo sapiens, UniProt P00915).
T3 construct: made in house
Description: Fluorescent thermal shift assay (FTSA), CA I. It counts as binding. The note with it: FTSA, pH 7.0, 37 °C; read-out: Compound Dissociation Constants Kd for CA I.

The next data set addresses T4, CA II (Homo sapiens, UniProt P00918).
T4 construct: made in house
As to the kind of experiment: Fluorescent thermal shift assay (FTSA), CA II. It counts as binding. The note with it: pH 7.0, 37 °C, read-out: Compound Dissociation Constants Kd for CA II.

For the next data set, the target named is T5, CA XIII (Homo sapiens, UniProt Q8N1Q1).
T5 construct: made in house
As to the kind of experiment: Fluorescent thermal shift assay (FTSA), CA XIII. Particulars: FTSA, pH 7.0, 37 °C; read-out: Compound Dissociation Constants Kd for CA XIII. The class given is binding.

In another data set the target is T6, CA XII (Homo sapiens, UniProt O43570).
T6 construct: made in house
Description: Fluorescent thermal shift assay (FTSA), CA XII. The class given is binding. Particulars: FTSA, pH 7.0, 37 °C; read-out: Compound Dissociation Constants Kd for CA XII.

T2 sequence (P43166 whole entry): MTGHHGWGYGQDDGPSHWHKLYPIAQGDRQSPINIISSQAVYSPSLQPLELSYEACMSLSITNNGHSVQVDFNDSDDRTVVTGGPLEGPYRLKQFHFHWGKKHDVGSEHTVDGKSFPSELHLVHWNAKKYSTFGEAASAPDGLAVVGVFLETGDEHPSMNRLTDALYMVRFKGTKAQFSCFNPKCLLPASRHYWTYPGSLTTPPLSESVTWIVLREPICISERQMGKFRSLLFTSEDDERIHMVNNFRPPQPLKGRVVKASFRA
T5 sequence (Q8N1Q1 whole entry): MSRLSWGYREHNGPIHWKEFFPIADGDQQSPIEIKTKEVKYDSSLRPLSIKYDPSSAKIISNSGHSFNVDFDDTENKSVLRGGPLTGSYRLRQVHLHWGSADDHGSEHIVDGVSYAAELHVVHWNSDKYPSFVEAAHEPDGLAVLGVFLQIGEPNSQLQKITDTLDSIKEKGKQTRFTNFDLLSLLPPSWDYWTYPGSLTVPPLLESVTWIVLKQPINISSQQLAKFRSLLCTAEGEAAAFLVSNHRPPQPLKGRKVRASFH
T3 sequence (P00915 whole entry): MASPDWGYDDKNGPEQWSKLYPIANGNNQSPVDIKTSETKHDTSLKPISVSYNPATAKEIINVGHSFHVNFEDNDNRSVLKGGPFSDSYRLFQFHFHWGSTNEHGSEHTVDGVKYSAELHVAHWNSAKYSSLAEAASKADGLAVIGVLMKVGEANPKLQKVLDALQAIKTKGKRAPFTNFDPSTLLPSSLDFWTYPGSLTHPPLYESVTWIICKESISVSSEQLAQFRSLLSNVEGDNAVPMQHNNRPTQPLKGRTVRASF
T1 sequence (P23280 18-308): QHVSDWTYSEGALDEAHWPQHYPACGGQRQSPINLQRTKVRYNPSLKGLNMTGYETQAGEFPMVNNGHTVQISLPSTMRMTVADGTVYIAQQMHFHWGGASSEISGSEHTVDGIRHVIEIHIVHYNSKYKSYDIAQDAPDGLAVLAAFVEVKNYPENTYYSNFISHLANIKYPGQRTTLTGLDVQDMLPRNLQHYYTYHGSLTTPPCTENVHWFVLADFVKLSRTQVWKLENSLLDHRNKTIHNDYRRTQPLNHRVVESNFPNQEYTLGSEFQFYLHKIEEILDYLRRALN
T6 sequence (O43570 30-289 limits assumed): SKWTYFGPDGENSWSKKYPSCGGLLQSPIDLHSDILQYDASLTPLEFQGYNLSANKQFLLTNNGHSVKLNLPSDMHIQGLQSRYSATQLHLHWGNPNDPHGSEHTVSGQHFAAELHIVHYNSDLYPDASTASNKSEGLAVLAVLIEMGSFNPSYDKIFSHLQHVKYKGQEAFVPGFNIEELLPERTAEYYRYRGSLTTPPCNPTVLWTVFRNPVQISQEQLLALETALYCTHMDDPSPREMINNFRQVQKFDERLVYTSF

Compound `NS(=O)(=O)c1ccc(NCCc2n[nH]c(=S)n2-c2ccccc2)cc1` [Compound 23, 4-{[2-(4-Phenyl-5-sulfanylidene-4,5-dihydro-1H-1,2,4-triazol-3-yl)ethyl]amino}benzene-1-sulfonamide] registered a melting point of 253 to 254 °C. The Kd on CA VI came out at 11.1 µM. For the same compound, on CA VII, the Kd is 6.67 µM. For the same compound, the Kd at CA I was 10 µM. Besides, the Kd on CA II is 2 µM. The Kd at CA XIII is 10 µM. Moreover, the Kd at CA XII turned out to be 6.67 µM.
Compound `NS(=O)(=O)c1ccc(NCCC(=O)N/N=C/c2ccc(Br)cc2)cc1` [Compound 14, 4-[(2-{N'-[(4-Bromphenyl)methylidene]hydrazinecarbonyl}ethyl)amino]benzene-1-sulfonamide] registered a melting point of 218 to 219 °C. Further, the Kd on CA VI is 7.1 µM. Also, on CA VII, the Kd amounted to 5.88 µM. Also, the Kd on CA I was determined as 12.5 µM. Also, the Kd at CA II amounted to 1.82 µM. Moreover, the Kd at CA XIII worked out at 7.14 µM. Besides, at CA XII, the Kd turned out to be 31.3 µM.
In turn, `NS(=O)(=O)c1ccc(NCCC(=O)NN=C(c2ccccc2)c2ccccc2)cc1` [Compound 13, 4-({2-[N'-(Diphenylmethylidene)hydrazinecarbonyl]ethyl}amino)benzene-1-sulfonamide] registered a melting point of 170 to 171 °C. For the same compound, the Kd on CA VI came out at 25 µM. In addition, the Kd on CA VII was determined as 16.7 µM. For the same compound, the Kd on CA I came to 11.5 µM. Besides, the Kd on CA II is 1.43 µM. Also, the Kd at CA XIII was determined as 4.35 µM. In addition, the Kd at CA XII worked out at 50 µM.
Take `CC(C)=NNC(=O)CCNc1ccc(S(N)(=O)=O)cc1` [Compound 11, 4-{[2-(N'-Propan-2-ylidenehydrazinecarbonyl)ethyl]amino}benzene-1-sulfonamide]: the melting point was in the range of 216 to 217 °C. For the same compound, on CA VI, the Kd was 71.4 µM. Moreover, the Kd at CA VII came to 28.6 µM. For the same compound, at CA I, the Kd is 45.5 µM. Besides, the Kd at CA II was 7.14 µM. In addition, on CA XIII, the Kd came out at 50 µM. The Kd at CA XII is 33.3 µM.
Consider `NS(=O)(=O)c1ccc(NCCC(=O)NN=Cc2ccc([N+](=O)[O-])cc2)cc1` [Compound 17, 4-[(2-{N′-[(4-Nitrophenyl)methylidene]hydrazinecarbonyl]ethyl)amino]benzene-1-sulfonamide], for which the melting point lay in the range of 227 to 228.5 °C. Further, the Kd on CA VI amounted to 25 µM. Also, the Kd at CA VII was found to be 25 µM. Also, at CA I, the Kd stood at 20 µM. The Kd at CA II is 3.6 µM. The Kd on CA XIII is 50 µM. Besides, on CA XII, the Kd is 67 µM.
As to `CN(C)c1ccc(/C=N/NC(=O)CCNc2ccc(S(N)(=O)=O)cc2)cc1` [Compound 16], the melting point lay in the range of 179 to 180.5 °C. Moreover, the Kd on CA VI came to 50 µM. At CA VII, the Kd was found to be 25 µM. At CA I, the Kd was 37 µM. Besides, at CA II, the Kd was found to be 8.33 µM. Also, the Kd on CA XIII turned out to be 55.6 µM. Further, at CA XII, the Kd was determined as 33.3 µM.
Compound `CC(=NNC(=O)CCNc1ccc(S(N)(=O)=O)cc1)c1ccccc1` [Compound 12, 4-{(2-[N'-(1-Phenylethylidene)hydrazinecarbonyl]ethyl}amino]benzene-1-sulfonamide] had a melting point of 185 to 186 °C. Besides, the Kd on CA VI turned out to be 25 µM. Also, the Kd at CA VII amounted to 12.5 µM. Also, on CA I, the Kd was 15.4 µM. The Kd on CA II turned out to be 1.85 µM. Also, the Kd on CA XIII is 5.56 µM. Besides, the Kd on CA XII turned out to be 33.3 µM.
As to `Cc1ccc(C)n1NC(=O)CCNc1ccc(S(N)(=O)=O)cc1` [Compound 19], the Kd at CA VI is 25 µM; on CA VII it was 11.1 µM; on CA I, 16.7 µM; on CA II, 2 µM; at CA XIII, 6.25 µM; on CA XII it was 28.6 µM.
